Test results from the NIST ThermoML archive (doi:10.1016/j.fluid.2016.01.001).
± gives the expanded uncertainty stated by the source.

Conditions: Capillary rise

## CCCC [butane]
278.15 K
  surface tension liquid-gas: 14.57 ± 0.06 mN/m
283.15 K
  surface tension liquid-gas: 13.96 ± 0.06 mN/m
288.15 K
  surface tension liquid-gas: 13.37 ± 0.06 mN/m
293.15 K
  surface tension liquid-gas: 12.79 ± 0.06 mN/m
298.15 K
  surface tension liquid-gas: 12.17 ± 0.06 mN/m
303.15 K
  surface tension liquid-gas: 11.53 ± 0.06 mN/m
308.15 K
  surface tension liquid-gas: 10.94 ± 0.06 mN/m
313.15 K
  surface tension liquid-gas: 10.35 ± 0.06 mN/m
318.15 K
  surface tension liquid-gas: 9.851 ± 0.058 mN/m
323.15 K
  surface tension liquid-gas: 9.286 ± 0.057 mN/m
328.15 K
  surface tension liquid-gas: 8.705 ± 0.057 mN/m
333.15 K
  surface tension liquid-gas: 8.14 ± 0.056 mN/m
338.15 K
  surface tension liquid-gas: 7.593 ± 0.056 mN/m
343.15 K
  surface tension liquid-gas: 7.043 ± 0.055 mN/m
348.15 K
  surface tension liquid-gas: 6.516 ± 0.055 mN/m
353.15 K
  surface tension liquid-gas: 5.991 ± 0.054 mN/m
358.15 K
  surface tension liquid-gas: 5.479 ± 0.054 mN/m
363.15 K
  surface tension liquid-gas: 4.981 ± 0.053 mN/m
368.15 K
  surface tension liquid-gas: 4.483 ± 0.053 mN/m
373.15 K
  surface tension liquid-gas: 4.003 ± 0.053 mN/m
378.15 K
  surface tension liquid-gas: 3.515 ± 0.052 mN/m
383.15 K
  surface tension liquid-gas: 3.049 ± 0.052 mN/m
388.15 K
  surface tension liquid-gas: 2.578 ± 0.051 mN/m
393.15 K
  surface tension liquid-gas: 2.091 ± 0.051 mN/m
398.15 K
  surface tension liquid-gas: 1.679 ± 0.051 mN/m
403.15 K
  surface tension liquid-gas: 1.29 ± 0.05 mN/m
408.15 K
  surface tension liquid-gas: 0.923 ± 0.05 mN/m
413.15 K
  surface tension liquid-gas: 0.583 ± 0.088 mN/m
417.15 K
  surface tension liquid-gas: 0.341 ± 0.088 mN/m
419.75 K
  surface tension liquid-gas: 0.186 ± 0.088 mN/m
420.35 K
  surface tension liquid-gas: 0.157 mN/m
420.85 K
  surface tension liquid-gas: 0.129 mN/m
421.08 K
  surface tension liquid-gas: 0.118 mN/m
421.48 K
  surface tension liquid-gas: 0.1 mN/m

## COC [dimethyl ether]
214 K
  surface tension liquid-gas: 24.45 ± 0.07 mN/m
220 K
  surface tension liquid-gas: 23.51 ± 0.07 mN/m
225 K
  surface tension liquid-gas: 22.69 ± 0.07 mN/m
230 K
  surface tension liquid-gas: 21.87 ± 0.07 mN/m
235 K
  surface tension liquid-gas: 21.15 ± 0.07 mN/m
240 K
  surface tension liquid-gas: 20.43 ± 0.07 mN/m
245 K
  surface tension liquid-gas: 19.7 ± 0.07 mN/m
250 K
  surface tension liquid-gas: 18.92 ± 0.06 mN/m
255 K
  surface tension liquid-gas: 18.15 ± 0.06 mN/m
260 K
  surface tension liquid-gas: 17.39 ± 0.06 mN/m
265 K
  surface tension liquid-gas: 16.62 ± 0.06 mN/m
270 K
  surface tension liquid-gas: 15.93 ± 0.06 mN/m
275 K
  surface tension liquid-gas: 15.19 ± 0.06 mN/m
280 K
  surface tension liquid-gas: 14.47 ± 0.06 mN/m
285 K
  surface tension liquid-gas: 13.73 ± 0.06 mN/m
290 K
  surface tension liquid-gas: 13.02 ± 0.06 mN/m
295 K
  surface tension liquid-gas: 12.28 ± 0.06 mN/m
300 K
  surface tension liquid-gas: 11.57 ± 0.06 mN/m
305 K
  surface tension liquid-gas: 10.85 ± 0.06 mN/m
315 K
  surface tension liquid-gas: 9.497 ± 0.055 mN/m
320 K
  surface tension liquid-gas: 8.813 ± 0.055 mN/m
325 K
  surface tension liquid-gas: 8.137 ± 0.054 mN/m
330 K
  surface tension liquid-gas: 7.476 ± 0.053 mN/m
335 K
  surface tension liquid-gas: 6.814 ± 0.053 mN/m
340 K
  surface tension liquid-gas: 6.164 ± 0.052 mN/m
345 K
  surface tension liquid-gas: 5.528 ± 0.052 mN/m
350 K
  surface tension liquid-gas: 4.899 ± 0.051 mN/m
355 K
  surface tension liquid-gas: 4.307 ± 0.05 mN/m
360 K
  surface tension liquid-gas: 3.707 ± 0.05 mN/m
365 K
  surface tension liquid-gas: 3.142 ± 0.049 mN/m
370 K
  surface tension liquid-gas: 2.575 ± 0.049 mN/m
375 K
  surface tension liquid-gas: 2.042 ± 0.048 mN/m
380 K
  surface tension liquid-gas: 1.516 ± 0.048 mN/m
385 K
  surface tension liquid-gas: 1.054 ± 0.048 mN/m
390 K
  surface tension liquid-gas: 0.614 ± 0.047 mN/m
